Data published in US20220096592A1, “PIC1 VARIANTS WITH IMPROVED SOLUBILITY AND METHODS OF USING THE SAME” (priority 2019, published 2022).
Where a SMILES comes first, the peptide text is derived from it. [ ]: non-standard residue; d: D form. Sar = CNCC(=O)O

Legend:
[1] = tested on: antibody-initiated complement activation (ABO incompatible hemolysis); settings: for inhibition of ABO incompatible hemolysis, in words: peptides at 1.8 mM, compared with PA-dPEG24, FIG. 1A; for complement inhibition overall, in words: both hemolytic complement inhibition assays
Experimental: (§1) For hemolytic complement assays, human red blood cells (RBCs) from type AB donors were purified, washed and standardized to 1×10^9 cells/ml, as previously described. Human sera from type 0 donors at a 20% final concentration was combined with […] PIC1 or sarcosine variant peptides, and the volume was brought up to 0.15 ml with GVBS^++ and […] RBCs. For factor B-depleted sera hemolytic assays, a final of 0.005% factor B depleted sera was incubated with […] PIC1 or sarcosine variant peptides with 0.1 ml antibody-sensitized sheep red blood cells (EA) in a final volume of 0.75 ml GVBS^++. The samples were incubated for one hour at 37° C. Then, 1.0 ml of GVBS^−− was added to the factor B-depleted samples to stop the reaction. The samples were spun at 3,000 rpm for 5 minutes. The supernatant was then collected and read at 412 nm. An analysis was performed to represent the values as a percent of the positive control, which consists of human 0 sera and AB red blood cells in GVBS^++ buffer.
(§2) An evaluation of the extent to which the peptide variants inhibit antibody-initiated complement activation was performed. The peptide variants were tested in the following two hemolytic assays: (i) an ABO incompatibility ex vivo assay and (ii) a classical pathway CH50-type assay in factor B-depleted sera.
In the ABO incompatibility hemolytic assay, purified erythrocytes from a ‘type AB+’ donor were incubated with sera from a ‘type 0’ subject containing anti-A and anti-B antibodies; peptides were tested at 1.8 mM.

[2] = tested on: purified human neutrophils; assay: NETosis assay (immune complex activated serum and H2O2; PicoGreen free DNA, fluorescence microscopy); assay type: cell-based; settings: peptides at 2 mM, FIG. 5A
Experimental: NETosis assays with immune complexes were performed as previously described. Briefly, normal human serum was stimulated with ovalbumin-antiovalbumin immune complexes in GVBS^++ for 30 minutes at 37° C. This mixture along with 0.05% H2O2 was then added to purified human neutrophils resuspended in RPMI with or without sarcosine variants (2 mM), allowing NETosis to occur. Quantitation of free DNA released from the neutrophils was performed using PicoGreen. Slides were stained with DAPI (Southern Biotech, Birmingham, Ala.). The following antibodies were used to visualize formation of NETs: • (i) mouse anti-elastase (Invitrogen, Carlsbad, Calif.) as a primary antibody with the secondary goat anti-mouse antibody Alexa Fluor 568 (Novus Biologicals, Centennial, Colo.) and • (ii) rabbit anti-histone H3 (Abcam, Cambridge Mass.) with goat anti-rabbit antibody Alexa Fluor 488 (Novus Biologicals). Fluorescence microscopy using an Olympus BX53 microscope was performed to visualize NETs.
The peptide variants were tested for inhibition of NETosis. In this assay, purified human neutrophils were stimulated with normal human serum activated with ovalbumin-antiovalbumin immune complexes and hydrogen peroxide. Free DNA expressed from the neutrophils was then measured in a PicoGreen assay. […] Direct visualization of neutrophil extracellular trap (NET) formation by fluorescence microscopy was used to confirm the above NETosis results with the 18 variant. Human neutrophils were purified and stimulated on glass slides then stained with DAPI to visualize DNA and probed with anti-neutrophil elastase (αNE) and anti-histone H3 (αhistone), as previously described. […] Fluorescence microscopy visualization of NETs confirmed the findings seen for quantitative measurements of free DNA.

[3] = Total Antioxidant Capacity (TAC) assay; settings: for total antioxidant capacity, in words: 0.03-0.25 mM, copper reducing equivalents, FIG. 4
Experimental: The TAC (Total Antioxidant Capacity) Assay (Cell Biolabs, Inc. San Diego, Calif.) was used to measure the antioxidant capacity of the sarcosine variants based on the reduction of copper (II) to copper (I). The assay was performed according to the recommended kit protocol.
Antioxidant activity was measured in copper reducing equivalents (CRE). Peptides were tested over a range of concentrations from 0.03-0.25 mM then compared to the standard.

[4] = molecular target: T1, myeloperoxidase (MPO) (Homo sapiens, UniProt P05164); assay: MPO peroxidase activity, TMB-based assay; assay type: biochemical
T1 construct: purchased Lee BioSolutions (Maryland Heights, Mo.)
Experimental: PIC1 and sarcosine variants were diluted to 25 mg/ml and then serially titrated in a 96 well plate at a volume of 0.02 ml. Myeloperoxidase (MPO) was diluted to 20 μg/ml and 0.02 ml was added to the titrated peptides. TMB (3,3′,5,5′-tetramethylbenzidine) (0.1 ml) was added to each well for 2 minutes, followed by 0.1 ml of 2.5 N H2SO4 for another 2 minutes, and then read on a 96 well plate reader (BioTek) at 450 nm.
In this assay, the variants were tested for MPO inhibition over a range of concentrations. Strong MPO inhibition was found for all variants with the exception of the no-cysteine variant (C9,10).

[5] = tested on: classical complement pathway
Experimental: as §1, §2
A CH50-type hemolytic assay was then performed. with antibody-sensitized sheep erythrocytes, isolating the classical pathway by utilizing factor B-depleted sera; peptides were tested at 0.4 mM.

[6] = molecular target: T2, MPO heme ring (Homo sapiens, UniProt P05164); assay: MPO heme ring oxidative degradation (absorbance 300-550 nm); assay type: biochemical; settings: peptides at 3 mM, with H2O2, FIG. 3A-3H
T2 construct: purchased Lee BioSolutions (Maryland Heights, Mo.)
Experimental: In a 96 well plate, 0.025 ml of 1.7 mg/ml MPO was combined with 0.00125 ml of 0.5% H2O2 and 3 mM PIC1 or sarcosine variant peptides in a total volume of 0.125 ml PBS and left to incubate at room temperature for 2 minutes. Using a 96 well plate reader, the wells were scanned for absorbance from 300-550 nm to generate curves reflecting the iron state in the MPO heme ring, as previously reported.
The ability of the variants to prevent degradation of the heme ring in the MPO molecule was then evaluated. […] Degradation of the heme ring can be evaluated via spectrometric measurements of absorption of wavelengths from 300 to 550 nm.

[7] = molecular target: T3, C1q (Homo sapiens, UniProt P02745+P02746+P02747); assay: ELISA-type assay of peptide binding to C1q; settings: binding curves and half-maximal binding, FIG. 1C, 1D
T3 construct: purchased Complement Technology (Tyler, Tex.)
Experimental: (§3) The plates were washed with PBST (phosphate buffered saline+0.1% Tween) and then blocked with 1% gelatin/PBS for 2 hours at room temperature. After washing, the plates were incubated with PA or sarcosine variant peptides starting at 2.5 mg/ml and then serially diluted in 1% gelatin/PBS for 1 hour at room temperature. After washing, the plates were probed with rabbit anti-PA (developed with Cocalico Biologicals, Reamstown, Pa.) at 1:1000 in 1% gelatin/PBS for 1 hour, room temperature, followed by a goat anti-rabbit HRP (Sigma Aldrich, St Louis, Mo.) at 1:1,000 in 1% gelatin/PBS for 1 hour at room temperature with a washing step in between. Wells were developed using TMB substrate solution, stopped using 1 N H2SO4, and read at 450 nm in a plate reader.
Higher concentrations of DMSO interfere with the detecting reagents resulting in a partial binding curve.

[8] = molecular target: T4, MPO (Homo sapiens, UniProt P05164); assay: plate-based assay of binding to solid phased MPO; settings: binding curves and half-maximal binding, FIG. 2C, 2D
T4 construct: purchased Lee BioSolutions (Maryland Heights, Mo.)
Experimental: as §3
A plate-based assay was performed to test the binding of the peptide variants to solid phased MPO. MPO binding was identified for all variants, except for C9,10.

[9] = summary grade of Table 4, key not given

T2 sequence (P05164 279-745 limits assumed): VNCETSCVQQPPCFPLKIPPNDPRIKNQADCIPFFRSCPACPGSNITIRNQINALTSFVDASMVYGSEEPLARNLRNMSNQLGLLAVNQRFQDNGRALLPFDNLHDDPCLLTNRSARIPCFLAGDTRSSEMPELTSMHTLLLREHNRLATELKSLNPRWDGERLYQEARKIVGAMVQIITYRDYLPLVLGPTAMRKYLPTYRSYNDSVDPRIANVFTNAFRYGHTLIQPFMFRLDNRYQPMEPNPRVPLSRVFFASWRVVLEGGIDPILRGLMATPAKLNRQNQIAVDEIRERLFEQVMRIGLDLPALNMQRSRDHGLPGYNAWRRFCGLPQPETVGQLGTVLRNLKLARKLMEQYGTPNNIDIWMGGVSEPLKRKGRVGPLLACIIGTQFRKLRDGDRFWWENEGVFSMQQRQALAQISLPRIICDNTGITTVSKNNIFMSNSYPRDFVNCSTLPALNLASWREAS
T2 sequence (P05164 165-273 limits assumed): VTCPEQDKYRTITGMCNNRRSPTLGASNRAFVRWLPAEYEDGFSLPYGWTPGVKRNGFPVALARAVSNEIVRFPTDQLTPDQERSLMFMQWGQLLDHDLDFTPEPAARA
T1 sequence (P05164 279-745 limits assumed): as the sequence (P05164 279-745 limits assumed) above
T1 sequence (P05164 165-273 limits assumed): as the sequence (P05164 165-273 limits assumed) above
T4 sequence (P05164 279-745 limits assumed): as the sequence (P05164 279-745 limits assumed) above
T4 sequence (P05164 165-273 limits assumed): as the sequence (P05164 165-273 limits assumed) above
T3 sequence (P02745 23-245): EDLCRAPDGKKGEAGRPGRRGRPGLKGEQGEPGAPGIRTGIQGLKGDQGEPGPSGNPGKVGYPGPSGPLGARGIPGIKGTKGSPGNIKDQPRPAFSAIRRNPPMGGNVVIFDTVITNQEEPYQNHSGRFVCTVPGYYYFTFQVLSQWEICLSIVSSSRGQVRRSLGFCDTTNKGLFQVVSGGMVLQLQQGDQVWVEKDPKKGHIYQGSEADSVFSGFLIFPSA
T3 sequence (P02746 28-253): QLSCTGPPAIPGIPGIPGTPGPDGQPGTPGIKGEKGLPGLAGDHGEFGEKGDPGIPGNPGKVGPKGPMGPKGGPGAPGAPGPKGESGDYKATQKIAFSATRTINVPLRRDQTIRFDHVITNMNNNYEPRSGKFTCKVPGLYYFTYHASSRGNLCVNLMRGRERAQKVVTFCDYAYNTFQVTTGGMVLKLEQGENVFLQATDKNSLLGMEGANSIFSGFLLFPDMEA
T3 sequence (P02747 29-245): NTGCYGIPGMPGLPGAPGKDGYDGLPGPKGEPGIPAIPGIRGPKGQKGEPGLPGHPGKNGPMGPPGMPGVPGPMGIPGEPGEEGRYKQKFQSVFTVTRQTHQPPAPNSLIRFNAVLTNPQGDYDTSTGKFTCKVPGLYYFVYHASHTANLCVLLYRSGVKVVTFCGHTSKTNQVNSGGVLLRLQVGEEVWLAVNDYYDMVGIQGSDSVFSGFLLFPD

Row | Structure (SMILES) | inhibition of ABO incompatible hemolysis, in words [1] | inhibition of NETosis (free DNA, PicoGreen), in words [2] | total antioxidant capacity, in words [3] | inhibition of heme ring degradation, in words [6] | complement inhibition overall, in words [1] | further results
1 | CC[C@H](C)[C@H](N)C(=O)N(C)CC(=O)N[C@@H](CC(C)C)C(=O)N[C@H](C(=O)N[C@@H](CC(C)C)C(=O)N[C@@H](CCC(=O)O)C(=O)N1CCC[C@H]1C(=O)N[C@H](C(=O)N[C@@H](CS)C(=O)N[C@@H](CS)C(=O)N[C@@H](CCC(N)=O)C(=O)N[C@@H](CCC(=O)O)C(=O)N[C@@H](CCCNC(=N)N)C(=O)N[C@@H](C)C(=O)N[C@@H](C)C(=O)O)[C@@H](C)CC)[C@@H](C)CC [A2] (H-I[Sar]LILEPICCQERAA-OH) | inhibited ABO incompatible hemolysis to a greater extent than did the PA-dPEG24 |  |  |  |  | 
2 | CC[C@H](C)[C@H](N)C(=O)N[C@@H](C)C(=O)N[C@@H](CC(C)C)C(=O)N[C@H](C(=O)N[C@@H](CC(C)C)C(=O)N[C@@H](CCC(=O)O)C(=O)N1CCC[C@H]1C(=O)N[C@H](C(=O)N(C)CC(=O)N[C@@H](CCC(N)=O)C(=O)N[C@@H](CCC(=O)O)C(=O)N[C@@H](CCCNC(=N)N)C(=O)N[C@@H](C)C(=O)N[C@@H](C)C(=O)O)[C@@H](C)CC)[C@@H](C)CC [C9, 10] (H-IALILEPI[Sar]QERAA-OH) | minimal inhibition of ABO hemolysis | only slight inhibition relative to the negative control | no antioxidant capacity | showed inhibition of heme ring degradation | most, but not all, complement inhibition was lost | Total Antioxidant Cap [3, 9]: 0; MPO inhibition, in words ([4]; dose-response and half-maximal inhibition, FIG. 2A, 2B): does not possess; MPO inhibition [4, 9]: 0; inhibition of classical pathway hemolysis, in words ([5]; peptides at 0.4 mM, compared with PA-dPEG24, FIG. 1B): minimal activity; Classical C’ inhibition [5, 9]: 0; ABO C’ inhibition [1, 9]: 0
3 | CC[C@H](C)[C@H](N)C(=O)N[C@@H](C)C(=O)N[C@@H](CC(C)C)C(=O)N(C)CC(=O)N[C@@H](CC(C)C)C(=O)N[C@@H](CCC(=O)O)C(=O)N1CCC[C@H]1C(=O)N[C@H](C(=O)N[C@@H](CS)C(=O)N[C@@H](CS)C(=O)N[C@@H](CCC(N)=O)C(=O)N[C@@H](CCC(=O)O)C(=O)N[C@@H](CCCNC(=N)N)C(=O)N[C@@H](C)C(=O)N[C@@H](C)C(=O)O)[C@@H](C)CC [I4] (H-IAL[Sar]LEPICCQERAA-OH) | inhibited ABO incompatible hemolysis to a greater extent than did the PA-dPEG24 | reduced ability to inhibit NETosis compared with PA-dPEG24 | antioxidant capacity approaching that of PA-dPEG24 |  |  | 
4 | CC[C@H](C)[C@H](N)C(=O)N[C@@H](C)C(=O)N(C)CC(=O)N[C@H](C(=O)N[C@@H](CC(C)C)C(=O)N[C@@H](CCC(=O)O)C(=O)N1CCC[C@H]1C(=O)N[C@H](C(=O)N[C@@H](CS)C(=O)N[C@@H](CS)C(=O)N[C@@H](CCC(N)=O)C(=O)N[C@@H](CCC(=O)O)C(=O)N[C@@H](CCCNC(=N)N)C(=O)N[C@@H](C)C(=O)N[C@@H](C)C(=O)O)[C@@H](C)CC)[C@@H](C)CC [L3] (H-IA[Sar]ILEPICCQERAA-OH) |  |  | antioxidant capacity approaching that of PA-dPEG24 |  |  | 
5 | CC[C@H](C)[C@H](N)C(=O)N[C@@H](C)C(=O)N[C@@H](CC(C)C)C(=O)N[C@H](C(=O)N[C@@H](CC(C)C)C(=O)N[C@@H](CCC(=O)O)C(=O)N1CCC[C@H]1C(=O)N[C@H](C(=O)N(C)CC(=O)N[C@@H](CS)C(=O)N[C@@H](CCC(N)=O)C(=O)N[C@@H](CCC(=O)O)C(=O)N[C@@H](CCCNC(=N)N)C(=O)N[C@@H](C)C(=O)N[C@@H](C)C(=O)O)[C@@H](C)CC)[C@@H](C)CC [C9] (H-IALILEPI[Sar]CQERAA-OH) | inhibited ABO incompatible hemolysis to a greater extent than did the PA-dPEG24 |  | approximately half of the antioxidant capacity as PA-dPEG24 | near perfect preservation of the heme ring absorption spectrum | performed almost identically to the parent compound, PA-dPEG24 | 
6 | CC[C@H](C)[C@H](N)C(=O)N[C@@H](C)C(=O)N[C@@H](CC(C)C)C(=O)N[C@H](C(=O)N[C@@H](CC(C)C)C(=O)N[C@@H](CCC(=O)O)C(=O)N1CCC[C@H]1C(=O)N[C@H](C(=O)N[C@@H](CS)C(=O)N[C@@H](CS)C(=O)N[C@@H](CCC(N)=O)C(=O)N[C@@H](CCC(=O)O)C(=O)N[C@@H](CCCNC(=N)N)C(=O)N[C@@H](C)C(=O)N[C@@H](C)C(=O)O)[C@@H](C)CC)[C@@H](C)CC [PA] |  |  |  |  |  | binding to C1q, in words [7]: superior binding to C1q as compared with the other peptides; binding to MPO, in words [8]: near complete overlay of the 18 and PA curves
